From publication PMC9221509, “Discovery of a Novel Antimicrobial Peptide, Temporin-PKE, from the Skin Secretion of Pelophylax kl. esculentus, and Evaluation of Its Structure-Activity Relationships” (Biomolecules, 2022)
Values after ≈ are worked out from the molar mass of the structure shown. Non-standard residues stand in square brackets, D forms with d. Residues, ends and D or L forms follow the SMILES beside them. No end group written: not given here.

Key:
[1] = test system: HaCaT cells; assay type: cell-based, human; conditions: 24 h
Method: (§1) The cytotoxicity of the peptides against the human epidermal keratinocyte line, HaCaT, was tested using the MTT cell viability assay as described in a previous study. The 100 µL of the cell suspension in a complete DMEM medium with a density of 10,000 cells/mL was seeded in a 96-well plate and incubated overnight at 37 °C in a humidified 5% CO2 atmosphere. After 4 h of starvation in a serum-free medium, 100 μL of serial dilutions (from 10^−9 M to 10^−4 M) of temporin-PKE and its analogues was added to each well, and the plate was incubated for 24 h. The serum-free medium and 0.1% Triton X-100 were used as the negative and positive control, respectively. Then, MTT solution, at a volume of 10 μL, was added to each well, and the plate was incubated for 2 h. After this, the medium was replaced by 100 μL of DMSO, and plates were put in the shaking incubator for 15 min. The absorbance of each well was measured using a microplate reader (EL808, Biolise BioTek, Winooski, VT, USA) set to a wavelength of 570 nm. The equation used to calculate the viability of the cells is shown below: Cell viability (%)=A−Ab/An−Ab×100% where A represents the absorbance of each treatment group, Ab represents the average absorbance of the wells in the blank control group (cells not exposed to the test peptide and MTT), and An represents the average absorbance of the wells in the negative control group (cells not exposed to the test peptide).

[2] = test system: MRSA (NCTC 12493) biofilm; assay type: cell-based, methicillin-resistant Staphylococcus aureus; conditions: NCTC 12493, 24 h
Method: The anti-biofilm activities of the peptides against S. aureus (ATCC 6538), MRSA (NCTC 12493), E. faecalis (NCTC 12697), E. coli (ATCC CRM 8739), K. pneumoniae (ATCC 43816), and P. aeruginosa (ATCC CRM 9027), were evaluated. For the MBIC assay, 99 µL of bacterial suspension (5 × 10^5 CFU/mL) was mixed with 1 µL of serial dilutions (from 100 µM to 51,200 µM) of temporin-PKE and its analogues in a 96-well plate, and the plate was incubated in a moist shaking incubator at a speed of 200 rpm at 37 °C for 24 h. For the MBEC assay, 100 µL of bacterial suspension (5 × 10^5 CFU/mL) in each well was seeded in a new 96-well plate, and the plate was put into the same shaking incubator for 24 h incubation to allow biofilm formation on the well. After biofilm formation, the biofilm in the plate was washed with PBS twice. The PBS was aspirated between washes to remove planktonic bacterial cells. The washed biofilm in each well was treated with 100 µL of serial dilutions (from 1 µM to 512 µM) of the test peptides. Then, the plate was incubated in the same shaking incubator for another 24 h. After being washed by PBS twice and fixed with methanol, the biofilm in each well was incubated with 100 µL of 0.1% crystal violet for 30 min, and the stained biofilm was dissolved in 100 µL of glacial acidic acid after drying. The solutions were transferred to a new microplate, and the absorbance of each well was measured using a microplate reader (EL808, Biolise BioTek, Winooski, VT, USA) set to 595 nm wavelength. The MBIC was the minimum concentration of the peptide showing no biofilm formation. The MBEC is the lowest concentration of the peptide capable of eradicating the mature biofilms, which had no biofilm in the well.

[3] = test system: MRSA (NCTC 12493); assay type: cell-based, methicillin-resistant Staphylococcus aureus; conditions: NCTC 12493, 24 h
Method: The antimicrobial activities of peptides were evaluated against the Gram-positive bacteria, S. aureus (ATCC 6538), methicillin-resistant Staphylococcus aureus (MRSA) (NCTC 12493), Enterococcus faecalis (E. faecalis) (NCTC 12697); the Gram-negative bacteria, E. coli (ATCC CRM 8739), Klebsiella pneumoniae (K. pneumoniae) (ATCC 43816), Pseudomonas aeruginosa (P. aeruginosa) (ATCC CRM 9027); and the yeast, Candida albicans (C. albicans) (ATCC CRM 10231). Clinical isolates of MRSA (B042 V2E1 A), E. coli (ATCC BAA-2340), K. pneumoniae (ATCC BAA-1705), and P. aeruginosa (B004 V2S2 B) were also used to determine their antimicrobial activities. The suspension of microorganisms in the logarithmic growth phase with a specific final density (Gram-negative and Gram-positive bacteria: 5 × 10^5 CFU/mL; yeast: 1 × 10^6 CFU/mL) was incubated with different peptide concentrations from 1 µM to 512 µM at 37 °C for 24 h. PBS was used as the negative control, and norfloxacin and amphotericin B were selected as the positive control for bacteria and yeast, respectively. Since the Norfloxacin had weak activities against P. aeruginosa (B004 V2S2 B) and K. pneumoniae (ATCC BAA 1705), gentamicin was used as the positive control for these two bacterial strains. The absorbance of each well was obtained using a microplate reader (EL808, Biolise BioTek, Winooski, VT, USA) set at 550 nm wavelength. The MIC value was the lowest concentration of a peptide that inhibits visible bacterial growth. Once the MIC values were determined, an aliquot from the bacterial culture exposed to the peptide at or above its MIC value was inoculated on a Mueller Hinton agar (MHA) and was incubated at 37 for 18 h. The MBC value was the lowest concentration of a peptide that kills 99.9% of bacteria.
According to the procedures in a previous article, the analysis of the sensitivity of the peptides was determined by measuring MIC values in the presence of different types of salts and 10% fetal bovine serum. MRSA (NCTC 12493) and K. pneumoniae (ATCC 43816) were selected as the subjects of these assays. Various salts at different concentrations, including 150 mM NaCl, 4.5 mM KCl, 6 μM NH4Cl, 1 mM MgCl2, […], […], and 10% serum (Gibco, Auckland, New Zealand), were added to the MHB medium for the examination of the MIC values which were determined as described in Section 2.7.

[4] = test system: HCT-116 cells; assay type: cell-based; conditions: 24 h
Method: as §1
(§2) The anti-proliferative activities of peptides against HCT-116, NCI-H838 (H838), U251MG, PC-3, and NCI-H157 cell lines were determined by MTT cell viability assay, and the details were described in Section 2.9.

[5] = test system: NCI-H157 cells; assay type: cell-based; conditions: 24 h
Method: as §1, §2

[6] = test system: NCI-H838 (H838) cells; assay type: cell-based; conditions: 24 h
Method: as §1, §2

[7] = test system: PC-3 cells; assay type: cell-based; conditions: 24 h
Method: as §1, §2

[8] = test system: U251MG cells; assay type: cell-based; conditions: 24 h
Method: as §1, §2

| Compound | IC50 [1] | MBIC [2] | MIC against MRSA in the presence of 4 µM FeCl3 [3] | MIC against MRSA in the presence of 6 µM NH4Cl [3] | MIC against MRSA in the presence of 8 µM ZnCl2 [3] | MIC against MRSA in the presence of 1 mM MgCl2 [3] | MIC against MRSA in the presence of 2 mM CaCl2 [3] | MIC against MRSA in the presence of 4.5 mM KCl [3] | MIC against MRSA in the presence of 150 mM NaCl [3] | MIC against MRSA in the presence of 10% FBS [3] | MIC against MRSA, Negative [3] | IC50 [4] | IC50 [5] | IC50 [6] | IC50 [7] | IC50 [8] |
| --- | --- | --- | --- | --- | --- | --- | --- | --- | --- | --- | --- | --- | --- | --- | --- | --- |
| CC[C@@H](C)[C@@H](NC(=O)[C@H](CCCCN)NC(=O)[C@@H]1CCCN1C(=O)[C@H](CC(C)C)NC(=O)[C@H](CC(C)C)NC(=O)[C@H](CO)NC(=O)[C@H](CO)NC(=O)[C@H](CC(C)C)NC(=O)[C@H](C)NC(=O)CNC(=O)[C@H](NC(=O)[C@H](NC(=O)[C@H](CC(C)C)NC(=O)[C@@H]1CCCN1C(=O)[C@H](CC(C)C)NC(=O)[C@@H](N)Cc1ccccc1)[C@H](C)CC)[C@H](C)CC)C(=O)N[C@@H](Cc1ccccc1)C(N)=O [Temporin-PKE-3i] (H-FLPL[dI][dI]GALSSLLPK[dI]F-NH2) | 497 µM | 64 µM | 128 µM | 256 µM | 512 µM | 256 µM | 256 µM | 512 µM | 512 µM | 512 µM | 64 µM (≈ 118 µg/mL) | 72.1 µM | 71.2 µM | 193 µM | 167 µM | 121 µM |
| CC[C@@H](C)[C@@H](NC(=O)[C@H](CCCCN)NC(=O)[C@@H]1CCCN1C(=O)[C@H](CC(C)C)NC(=O)[C@H](CC(C)C)NC(=O)[C@H](CO)NC(=O)[C@H](CO)NC(=O)[C@H](CC(C)C)NC(=O)[C@H](C)NC(=O)CNC(=O)[C@@H](NC(=O)[C@@H](NC(=O)[C@H](CC(C)C)NC(=O)[C@@H]1CCCN1C(=O)[C@H](CC(C)C)NC(=O)[C@@H](N)Cc1ccccc1)[C@@H](C)CC)[C@@H](C)CC)C(=O)N[C@@H](Cc1ccccc1)C(N)=O [Temporin-PKE-i] (H-FLPLIIGALSSLLPK[dI]F-NH2) | 11.9 µM | 2 µM | 2 µM | – | 16 µM | – | 4 µM | – | 4 µM | 8 µM | – | 3.07 µM | 2.94 µM | 5.28 µM | 3.35 µM | 4.46 µM |
| FLPKIIGKLSSKLPKIF-NH2 [Temporin-PKE-4K] | 251 µM | 32 µM | 32 µM | 32 µM | 128 µM | 32 µM | 64 µM | 32 µM | 128 µM | 128 µM | 32 µM | 99.4 µM | 27.8 µM | 35.3 µM | 49.5 µM | 85.5 µM |
| FLPKIIGKLSSLLPKIF-NH2 [Temporin-PKE-3K] | 29.6 µM | 2 µM | 2 µM | 4 µM | 16 µM | 4 µM | 4 µM | 4 µM | 8 µM | 4 µM | 2 µM | 0.38 µM | 3.29 µM | 0.51 µM | 3.01 µM | 2.83 µM |
| FLPLIIGALSSKLPKIF-NH2 [Temporin-PKE-K12] | 19 µM | 4 µM | 8 µM | 8 µM | 32 µM | 16 µM | 16 µM | 32 µM | 32 µM | 32 µM | 4 µM | 22.1 µM | 24 µM | 22.7 µM | 27.3 µM | 25.8 µM |
